Publication PMC5460289, “Identification of New Shikonin Derivatives as Antitumor Agents Targeting STAT3 SH2 Domain” (Scientific Reports, 2017)

Experiments:
[1] = MTT anti-proliferation assay, non-tumorigenic cells; type: cell-based; conditions: human, non-tumorigenic MCF-10A cells, 24 h treatment
Experimental: (§1) Initial experiments were performed for evaluation of growth inhibition by the new compounds against six human breast cancer cell lines, including MCF-7 (ER+/PR+, HER-2-), BT474 (ER+/PR+, HER-2+), SKBR-3 (ER-/PR-/HER-2+), MDA-MB-436 (ER-/PR-/HER-2-), MDA-MB-231 (ER-/PR-/HER-2-), MDA-MB-468 (ER-/PR-/HER-2-) and non-tumorigenic MCF-10A cells. After 24 h treatment by the obtained compounds, the inhibition was assessed and the IC50 was summarized. […] Subsequently, the inhibition of STAT3 activation by PMM-172 and Stattic was evaluated using a dual-luciferase assay.
(§2) The anti-proliferative activities of the prepared compounds against MCF-7 (ER+/PR+, HER-2-), BT474 (ER+/PR+, HER-2+), SKBR-3 (ER-/PR-/HER-2+), MDA-MB-436 (ER-/PR-/HER-2-), MDA-MB-231 (ER-/PR-/HER-2-), MDA-MB-468 (ER-/PR-/HER-2-) and non-tumorigenic MCF-10A cell lines were evaluated using a standard (MTT)-based colorimetric assay with some modification. Cell lines were grown to log phase in DMEM supplemented with 10% fetal bovine serum. Cell suspensions were prepared and 100 μL/well dispensed into 96-well plates giving 10^4 cells/well. The subsequent incubation was permitted at 37 °C, 5% CO2 atmosphere for 24 h to allow the cells to reattach. Subsequently, cells were treated with the target compounds at increasing concentrations in the presence of 10% FBS for 24 h. Then, cell viability was assessed by the conventional 3-(4, 5-dimethylthiazol-2-yl)-2, 5-diphenyltetrazolium bromide (MTT) reduction assay and carried out strictly according to the manufacturer instructions. The absorbance (OD570) was read on an ELISA reader (Tecan, Austria). In all experiments, three replicate wells were used for each drug concentration. Each assay was carried out for at least three times.

SKBR-3 = test: MTT anti-proliferation assay; type: cell-based, human; conditions: Homo sapiens, SK-BR-3, 24 h treatment
Experimental: as §1, §2

MDA-MB-231 = test: MTT anti-proliferation assay; type: cell-based, human
Experimental: as §1, §2

MCF-7 = test: MTT anti-proliferation assay; type: cell-based, human; conditions: Homo sapiens, MCF7, 24 h treatment
Experimental: as §1, §2

BT-474 = test: MTT anti-proliferation assay; type: cell-based, human; conditions: Homo sapiens, BT-474, 24 h treatment
Experimental: as §1, §2

MDA-MB-468 = test: MTT anti-proliferation assay; type: cell-based, human; conditions: Homo sapiens, MDA-MB-468, 24 h treatment
Experimental: as §1, §2

MDA-MB-436 = test: MTT anti-proliferation assay; type: cell-based, human; conditions: Homo sapiens, MDA-MB-436, 24 h treatment
Experimental: as §1, §2

[2] = Homo sapiens, MDA-MB-231, 24 h treatment

| Compound | CC50 at 24 h [1] [µM] | IC50 (SKBR-3) [µM] | IC50 (MDA-MB-231; [2]) [µM] | IC50 (MCF-7) [µM] | IC50 (BT-474) [µM] | IC50 (MDA-MB-468) [µM] | IC50 (MDA-MB-436) [µM] | IC50 (MDA-MB-231; 24 h treatment) [µM] | IC50 (MDA-MB-231; Homo sapiens, MDA-MB-231, 24 h, 24 h treatment) [µM] |
| --- | --- | --- | --- | --- | --- | --- | --- | --- | --- |
| CC(C)=CC[C@@H](OC(=O)CSc1nnc(-c2ccccc2Br)o1)C1=CC(=O)c2c(O)ccc(O)c2C1=O [PMM-167, (R)-1-(5,8-dihydroxy-1,4-dioxo-1,4-dihydronaphthalen-2-yl)-4-methylpent-3-en-1-yl 2-((5-(2-bromophenyl)-1,3,4-oxadiazol-2-yl)thio)acetate] | 72.5 ± 1.53 | 9.76 ± 0.95 | 9.01 ± 0.56 | 15.3 ± 0.61 | 13.7 ± 0.92 | 12.2 ± 0.42 | 10.6 ± 0.82 |  |  |
| CC(C)=CC[C@@H](OC(=O)CSc1nnc(-c2ccccc2Cl)o1)C1=CC(=O)c2c(O)ccc(O)c2C1=O [PMM-164, (R)-1-(5,8-dihydroxy-1,4-dioxo-1,4-dihydronaphthalen-2-yl)-4-methylpent-3-en-1-yl 2-((5-(2-chlorophenyl)-1,3,4-oxadiazol-2-yl)thio)acetate] | 74.6 ± 0.55 | 4.49 ± 0.58 | 3.76 ± 1.02 | 5.71 ± 0.52 | 7.09 ± 0.65 | 3.94 ± 0.73 | 4.41 ± 0.55 |  |  |
| CC(C)=CC[C@@H](OC(=O)CSc1nnc(-c2ccccc2)o1)C1=CC(=O)c2c(O)ccc(O)c2C1=O [PMM-158, (R)-1-(5,8-dihydroxy-1,4-dioxo-1,4-dihydronaphthalen-2-yl)-4-methylpent-3-en-1-yl 2-((5-phenyl-1,3,4-oxadiazol-2-yl)thio)acetate] | 92.5 ± 0.27 | 11.5 ± 0.74 | 9.17 ± 0.99 | 12.1 ± 0.42 | 15.6 ± 1.03 | 10.6 ± 0.65 | 10.1 ± 0.92 |  |  |
| CC(C)=CC[C@@H](OC(=O)CSc1nnc(-c2ccc(C)cc2)o1)C1=CC(=O)c2c(O)ccc(O)c2C1=O [PMM-173, (R)-1-(5,8-dihydroxy-1,4-dioxo-1,4-dihydronaphthalen-2-yl)-4-methylpent-3-en-1-yl 2-((5-(p-tolyl)-1,3,4-oxadiazol-2-yl)thio)acetate] | 88.9 ± 0.34 | 3.59 ± 0.49 | 2.59 ± 0.19 | 5.58 ± 0.83 | 6.03 ± 0.71 | 3.76 ± 0.88 | 4.06 ± 0.53 |  |  |
| CC(C)=CC[C@@H](OC(=O)CSc1nnc(-c2ccccc2F)o1)C1=CC(=O)c2c(O)ccc(O)c2C1=O [PMM-161, (R)-1-(5,8-dihydroxy-1,4-dioxo-1,4-dihydronaphthalen-2-yl)-4-methylpent-3-en-1-yl 2-((5-(2-fluorophenyl)-1,3,4-oxadiazol-2-yl)thio)acetate] | 84.5 ± 0.74 | 9.29 ± 0.66 | 8.58 ± 0.53 | 9.81 ± 0.49 | 11.1 ± 1.12 | 8.97 ± 1.05 | 9.55 ± 0.83 |  |  |
| CC(C)=CC[C@@H](OC(=O)CSc1nnc(-c2cccc(Cl)c2)o1)C1=CC(=O)c2c(O)ccc(O)c2C1=O [PMM-163, (R)-1-(5,8-dihydroxy-1,4-dioxo-1,4-dihydronaphthalen-2-yl)-4-methylpent-3-en-1-yl 2-((5-(3-chlorophenyl)-1,3,4-oxadiazol-2-yl)thio)acetate] | 86.2 ± 0.33 | 7.56 ± 0.72 | 6.04 ± 0.59 | 8.69 ± 0.83 | 9.27 ± 0.86 | 7.83 ± 0.55 | 7.09 ± 0.63 |  |  |
| CC(C)=CC[C@@H](O)C1=CC(=O)c2c(O)ccc(O)c2C1=O [Shikonin, shikonin] | 23.5 ± 1.01 | 3.75 ± 0.52 |  | 4.57 ± 0.69 | 5.74 ± 0.66 | 3.61 ± 0.34 | 3.28 ± 0.41 | 2.88 ± 0.25 | 3.28 ± 0.41 |
| CC(C)=CC[C@@H](OC(=O)CSc1nnc(-c2ccc(Cl)cc2)o1)C1=CC(=O)c2c(O)ccc(O)c2C1=O [PMM-162, (R)-1-(5,8-dihydroxy-1,4-dioxo-1,4-dihydronaphthalen-2-yl)-4-methylpent-3-en-1-yl 2-((5-(4-chlorophenyl)-1,3,4-oxadiazol-2-yl)thio)acetate] | 91.9 ± 1.21 | 8.03 ± 0.83 | 6.14 ± 1.05 | 9.01 ± 0.92 | 9.54 ± 0.91 | 6.85 ± 0.92 | 7.28 ± 0.77 |  |  |
| CC(C)=CC[C@@H](OC(=O)CSc1nnc(-c2cccc(F)c2)o1)C1=CC(=O)c2c(O)ccc(O)c2C1=O [PMM-160, (R)-1-(5,8-dihydroxy-1,4-dioxo-1,4-dihydronaphthalen-2-yl)-4-methylpent-3-en-1-yl 2-((5-(3-fluorophenyl)-1,3,4-oxadiazol-2-yl)thio)acetate] | 68.3 ± 0.27 | 10.5 ± 0.88 | 9.66 ± 1.21 | 15.3 ± 0.52 | 18.3 ± 1.24 | 12.4 ± 0.52 | 11.8 ± 0.86 |  |  |
| CC(C)=CC[C@@H](OC(=O)CSc1nnc(-c2ccc(F)cc2)o1)C1=CC(=O)c2c(O)ccc(O)c2C1=O [PMM-159, (R)-1-(5,8-dihydroxy-1,4-dioxo-1,4-dihydronaphthalen-2-yl)-4-methylpent-3-en-1-yl 2-((5-(4-fluorophenyl)-1,3,4-oxadiazol-2-yl)thio)acetate] | 89.5 ± 0.99 | 8.95 ± 0.69 | 7.24 ± 0.82 | 9.22 ± 0.13 | 10.8 ± 0.94 | 8.23 ± 1.27 | 8.49 ± 0.78 |  |  |
| COc1cccc(-c2nnc(SCC(=O)O[C@H](CC=C(C)C)C3=CC(=O)c4c(O)ccc(O)c4C3=O)o2)c1 [PMM-169, (R)-1-(5,8-dihydroxy-1,4-dioxo-1,4-dihydronaphthalen-2-yl)-4-methylpent-3-en-1-yl 2-((5-(3-methoxyphenyl)-1,3,4-oxadiazol-2-yl)thio)acetate] | 99.5 ± 0.49 | 6.95 ± 0.82 | 5.33 ± 0.77 | 8.12 ± 0.98 | 8.36 ± 0.97 | 7.22 ± 1.11 | 7.36 ± 0.87 |  |  |
| COc1ccccc1-c1nnc(SCC(=O)O[C@H](CC=C(C)C)C2=CC(=O)c3c(O)ccc(O)c3C2=O)o1 [PMM-170, (R)-1-(5,8-dihydroxy-1,4-dioxo-1,4-dihydronaphthalen-2-yl)-4-methylpent-3-en-1-yl 2-((5-(2-methoxyphenyl)-1,3,4-oxadiazol-2-yl)thio)acetate] | 94.6 ± 0.83 | 8.27 ± 0.69 | 4.31 ± 0.65 | 9.73 ± 1.03 | 12.7 ± 1.06 | 8.44 ± 0.78 | 6.88 ± 0.73 |  |  |
| CC(C)=CC[C@@H](OC(=O)CSc1nnc(-c2cccc(Br)c2)o1)C1=CC(=O)c2c(O)ccc(O)c2C1=O [PMM-166, (R)-1-(5,8-dihydroxy-1,4-dioxo-1,4-dihydronaphthalen-2-yl)-4-methylpent-3-en-1-yl 2-((5-(3-bromophenyl)-1,3,4-oxadiazol-2-yl)thio)acetate] | 69.9 ± 0.58 | 4.87 ± 0.58 | 3.64 ± 0.91 | 6.41 ± 0.75 | 6.91 ± 0.73 | 4.07 ± 0.66 | 4.66 ± 0.59 |  |  |
| CC(C)=CC[C@@H](OC(=O)CSc1nnc(-c2ccc(Br)cc2)o1)C1=CC(=O)c2c(O)ccc(O)c2C1=O [PMM-165, (R)-1-(5,8-dihydroxy-1,4-dioxo-1,4-dihydronaphthalen-2-yl)-4-methylpent-3-en-1-yl 2-((5-(4-bromophenyl)-1,3,4-oxadiazol-2-yl)thio)acetate] | 83.7 ± 1.28 | 6.23 ± 0.73 | 5.47 ± 1.01 | 9.38 ± 0.66 | 9.22 ± 0.98 | 6.58 ± 0.15 | 5.97 ± 0.67 |  |  |
